Source: PubChem BioAssay (NCI)
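Exposure lasted 48 hours, with cells grown in 96-well plates and compounds tested at five concentrations. TGI denotes the concentration required for complete inhibition of growth.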

Columns and labels:
Test in all cases: NCI anticancer screen, dose series, 48 h
COLO 205 colon = tested on: COLO 205 colon
DU-145 prostate = tested on: DU-145 prostate
HOP-92 NSCLC = tested on: HOP-92 NSCLC
MCF7 breast = tested on: MCF7 breast
HOP-62 NSCLC = tested on: HOP-62 NSCLC
HCC-2998 colon = tested on: HCC-2998 colon
MALME-3M melanoma = tested on: MALME-3M melanoma
MDA-N = tested on: MDA-N
SNB-19 CNS = tested on: SNB-19 CNS
NCI/ADR-RES ovarian = tested on: NCI/ADR-RES ovarian
TK-10 renal = tested on: TK-10 renal
HCT-116 colon = tested on: HCT-116 colon
SF-268 CNS = tested on: SF-268 CNS
SN12C renal = tested on: SN12C renal
CAKI-1 renal = tested on: CAKI-1 renal
NCI-H460 lung = tested on: NCI-H460 lung
UACC-62 melanoma = tested on: UACC-62 melanoma
OVCAR-3 ovarian = tested on: OVCAR-3 ovarian
MDA-MB-435 = tested on: MDA-MB-435
LOX IMVI melanoma = tested on: LOX IMVI melanoma
NCI-H522 lung = tested on: NCI-H522 lung
MDA-MB-231 breast = tested on: MDA-MB-231 breast
MOLT-4 leukemia = tested on: MOLT-4 leukemia
OVCAR-4 ovarian = tested on: OVCAR-4 ovarian
OVCAR-5 ovarian = tested on: OVCAR-5 ovarian
OVCAR-8 ovarian = tested on: OVCAR-8 ovarian
SF-295 CNS = tested on: SF-295 CNS
SK-MEL-2 melanoma = tested on: SK-MEL-2 melanoma
A498 renal = tested on: A498 renal
UACC-257 melanoma = tested on: UACC-257 melanoma
T-47D breast = tested on: T-47D breast
HT29 colon = tested on: HT29 colon
BT-549 breast = tested on: BT-549 breast
HS 578T breast = tested on: HS 578T breast
SNB-75 CNS = tested on: SNB-75 CNS
HCT-15 colon = tested on: HCT-15 colon
786-0 renal = tested on: 786-0 renal
CCRF-CEM leukemia = tested on: CCRF-CEM leukemia
SK-MEL-5 melanoma = tested on: SK-MEL-5 melanoma
PC-3 prostate = tested on: PC-3 prostate
SR leukemia = tested on: SR leukemia
SK-OV-3 ovarian = tested on: SK-OV-3 ovarian
A549 NSCLC = tested on: A549 NSCLC
ACHN renal = tested on: ACHN renal
KM12 colon = tested on: KM12 colon
NCI-H23 lung = tested on: NCI-H23 lung
UO-31 renal = tested on: UO-31 renal
M14 melanoma = tested on: M14 melanoma
EKVX NSCLC = tested on: EKVX NSCLC
RXF 393 renal = tested on: RXF 393 renal
RPMI-8226 leukemia = tested on: RPMI-8226 leukemia
U251 CNS = tested on: U251 CNS

Measured: TGI

O=C(CCCCCCCCC(=O)N1C(=O)CC(=O)N(c2cccc(Cl)c2)C1=S)N1C(=O)CC(=O)N(c2cccc(Cl)c2)C1=S
84.3 µM: UACC-62 melanoma | MDA-MB-231 breast
91.2 µM: PC-3 prostate
67.8 µM: SR leukemia
65 µM: OVCAR-3 ovarian
96.9 µM: NCI/ADR-RES ovarian
70.6 µM: MOLT-4 leukemia
71.1 µM: NCI-H522 lung
51.1 µM: HOP-92 NSCLC
> 100 µM: all other assays above
